Key:
[1] = system: hiPSC-CMs (iCell2 Cardiomyocytes) 2D monolayers; experiment: Membrane potential (action potential) recordings with FluoVolt voltage-sensitive dye on the CellOPTIQ platform; assay type: cell-based, human; settings: for activity at 1 µM / activity at 3 µM / activity at 10 µM / activity at 0.3 µM: Homo sapiens, Cardiomyocyte, 0.5 h, 30 min, delta over DMSO 0.1%
Outline: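 iCell2 hiPSC-CM monolayers (50,000 cells/well on fibronectin or Matrix Plus, days 5–6) were loaded with FluoVolt (1:1000, 20 min, 37 °C) and imaged at 37 °C with 470 nm excitation and 510–560 nm emission sampled at 10 kHz. Spontaneous action potentials were recorded for 10 s at baseline and 30 min after drug, with one of four concentrations per well (n = 8).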

[2] = system: hiPSC-CMs (iCell2 Cardiomyocytes) 2D monolayers; experiment: Contractility measurements using video imaging (ContractilityTool / MUSCLEMOTION); assay type: cell-based, human; settings: Homo sapiens, Cardiomyocyte, 0.5 h, 30 min, delta over DMSO 0.1%
Outline: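 Monolayers on fibronectin or Matrix Plus coating, tested on days 5–6 in serum-free medium. Four concentrations, one per well, n = 8, with vehicle control.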

[3] = listed in Supplementary Table S1; no reference given; cited from earlier work
[4] = FM monolayer, read-out: APD30 (%DD)
[5] = FM monolayer, read-out: APD90 (%DD)
[6] = FM monolayer, read-out: CL (%DD)
[7] = FM monolayer, read-out: Trise (%DD)
[8] = MM monolayer, read-out: APD30 (%DD)
[9] = MM monolayer, read-out: APD90 (%DD)
[10] = MM monolayer, read-out: CL (%DD)
[11] = MM monolayer, read-out: Trise (%DD)
[12] = FM monolayer, read-out: CtAmp (%DD)
[13] = FM monolayer, read-out: CtD50 (%DD)
[14] = MM monolayer, read-out: CtAmp (%DD)
[15] = MM monolayer, read-out: CtD50 (%DD)

Question: For `CC(CCc1ccc(O)cc1)NCCc1ccc(O)c(O)c1` (stereo not shown) [Dobutamine], which activity at 1 µM [1, 4] is on record?
Answer: Its activity at 1 µM is 84 ± 1.4%.

Question: What about the activity at 1 µM [1, 5] of the same compound?
Answer: Its activity at 1 µM is 89 ± 0.9%.

Question: And the activity at 1 µM [1, 6]?
Answer: Its activity at 1 µM is 76 ± 0.4%.

Question: What about the activity at 1 µM [1, 7] of the same compound?
Answer: The activity at 1 µM was 86 ± 5.3%.

Question: What about the activity at 3 µM [1, 4] of the same compound?
Answer: The activity at 3 µM was 77 ± 1.5%.

Question: What about the activity at 3 µM [1, 5] of the same compound?
Answer: Its activity at 3 µM is 86 ± 0.8%.

Question: What about the activity at 3 µM [1, 6] of the same compound?
Answer: The activity at 3 µM was 77 ± 0.9%.

Question: What about the activity at 3 µM [1, 7] of the same compound?
Answer: The activity at 3 µM was 100 ± 18.9%.

Question: What about the activity at 10 µM [1, 4] of the same compound?
Answer: The activity at 10 µM was 90 ± 2%.

Question: What about the activity at 10 µM [1, 5] of the same compound?
Answer: The activity at 10 µM was 91 ± 1.9%.

Question: What about the activity at 10 µM [1, 6] of the same compound?
Answer: The activity at 10 µM was 81 ± 0.8%.

Question: And the activity at 10 µM [1, 7]?
Answer: Its activity at 10 µM is 131 ± 21.5%.

Question: What about the activity at 1 µM [1, 8] of the same compound?
Answer: The activity at 1 µM was 89 ± 1.2%.

Question: And the activity at 1 µM [1, 9]?
Answer: The activity at 1 µM was 91 ± 1%.

Question: What about the activity at 1 µM [1, 10] of the same compound?
Answer: The activity at 1 µM was 75 ± 0.7%.

Question: What about the activity at 1 µM [1, 11] of the same compound?
Answer: The activity at 1 µM was 91 ± 7.1%.

Question: And the activity at 3 µM [1, 8]?
Answer: Its activity at 3 µM is 85 ± 1.3%.

Question: What about the activity at 3 µM [1, 9] of the same compound?
Answer: The activity at 3 µM was 91 ± 0.9%.

Question: What about the activity at 3 µM [1, 10] of the same compound?
Answer: Its activity at 3 µM is 76 ± 0.5%.

Question: And the activity at 3 µM [1, 11]?
Answer: Its activity at 3 µM is 109 ± 14.1%.

Question: What about the activity at 10 µM [1, 8] of the same compound?
Answer: The activity at 10 µM was 86 ± 1.9%.

Question: What about the activity at 10 µM [1, 9] of the same compound?
Answer: Its activity at 10 µM is 96 ± 0.9%.

Question: What about the activity at 10 µM [1, 10] of the same compound?
Answer: Its activity at 10 µM is 81 ± 0.6%.

Question: And the activity at 10 µM [1, 11]?
Answer: Its activity at 10 µM is 146 ± 13.9%.

Question: And the “effect on cycle length (in words)” value ([1]; both FM and MM monolayers, concentration not given)?
Answer: The value was “concentration-dependent decrease”.

Question: And the “electrical activity of the monolayers at higher concentrations” value ([1]; higher concentrations, FM and MM)?
Answer: Its value is “electrically quiescent”.

Question: What about the activity at 1 µM [2, 12] of the same compound?
Answer: The activity at 1 µM was 93 ± 10.7%.

Question: What about the activity at 1 µM [2, 13] of the same compound?
Answer: Its activity at 1 µM is 79 ± 1.5%.

Question: And the activity at 3 µM [2, 12]?
Answer: Its activity at 3 µM is 99 ± 8.4%.

Question: And the activity at 3 µM [2, 13]?
Answer: The activity at 3 µM was 75 ± 2%.

Question: And the activity at 10 µM [2, 12]?
Answer: Its activity at 10 µM is 82 ± 3.2%.

Question: And the activity at 10 µM [2, 13]?
Answer: The activity at 10 µM was 82 ± 2.2%.

Question: And the activity at 1 µM [2, 14]?
Answer: The activity at 1 µM was 101 ± 11.6%.

Question: And the activity at 1 µM [2, 15]?
Answer: Its activity at 1 µM is 82 ± 1.1%.

Question: What about the activity at 3 µM [2, 14] of the same compound?
Answer: The activity at 3 µM was 89 ± 6.3%.

Question: And the activity at 3 µM [2, 15]?
Answer: Its activity at 3 µM is 78 ± 1.2%.

Question: And the activity at 10 µM [2, 14]?
Answer: The activity at 10 µM was 98 ± 7.5%.

Question: What about the activity at 10 µM [2, 15] of the same compound?
Answer: The activity at 10 µM was 77 ± 1.3%.

Question: And the “Free Cmax” value [3]?
Answer: The value was 80 nM.

Question: With `Cc1[nH]c(=O)c(C#N)cc1-c1ccncc1` [Milrinone] as the compound, how does the activity at 0.3 µM [1, 4] read?
Answer: The activity at 0.3 µM was 96 ± 1.8%.

Question: What about the activity at 0.3 µM [1, 5] of the same compound?
Answer: The activity at 0.3 µM was 96 ± 1.2%.

Question: And the activity at 0.3 µM [1, 6]?
Answer: Its activity at 0.3 µM is 96 ± 1.6%.

Question: What about the activity at 0.3 µM [1, 7] of the same compound?
Answer: The activity at 0.3 µM was 80 ± 13.1%.

Question: And the activity at 1 µM [1, 4]?
Answer: Its activity at 1 µM is 100 ± 1%.

Question: And the activity at 1 µM [1, 5]?
Answer: The activity at 1 µM was 96 ± 0.7%.

Question: And the activity at 1 µM [1, 6]?
Answer: The activity at 1 µM was 99 ± 0.8%.

Question: And the activity at 1 µM [1, 7]?
Answer: Its activity at 1 µM is 74 ± 13.3%.

Question: What about the activity at 3 µM [1, 4] of the same compound?
Answer: Its activity at 3 µM is 96 ± 1.9%.

Question: And the activity at 3 µM [1, 5]?
Answer: Its activity at 3 µM is 94 ± 0.4%.

Question: What about the activity at 3 µM [1, 6] of the same compound?
Answer: The activity at 3 µM was 100 ± 0.7%.

Question: What about the activity at 3 µM [1, 7] of the same compound?
Answer: Its activity at 3 µM is 68 ± 7.3%.

Question: What about the activity at 10 µM [1, 4] of the same compound?
Answer: The activity at 10 µM was 92 ± 2%.

Question: And the activity at 10 µM [1, 5]?
Answer: Its activity at 10 µM is 95 ± 1.1%.

Question: What about the activity at 10 µM [1, 6] of the same compound?
Answer: Its activity at 10 µM is 103 ± 0.6%.

Question: What about the activity at 10 µM [1, 7] of the same compound?
Answer: The activity at 10 µM was 106 ± 26.8%.

Question: And the activity at 0.3 µM [1, 8]?
Answer: The activity at 0.3 µM was 96 ± 1.6%.

Question: And the activity at 0.3 µM [1, 9]?
Answer: The activity at 0.3 µM was 97 ± 1.1%.

Question: What about the activity at 0.3 µM [1, 10] of the same compound?
Answer: The activity at 0.3 µM was 97 ± 0.2%.

Question: What about the activity at 0.3 µM [1, 11] of the same compound?
Answer: Its activity at 0.3 µM is 112 ± 18.8%.

Question: What about the activity at 1 µM [1, 8] of the same compound?
Answer: Its activity at 1 µM is 97 ± 0.7%.

Question: And the activity at 1 µM [1, 9]?
Answer: The activity at 1 µM was 99 ± 0.5%.

Question: And the activity at 1 µM [1, 10]?
Answer: Its activity at 1 µM is 100 ± 0.6%.

Question: And the activity at 1 µM [1, 11]?
Answer: Its activity at 1 µM is 125 ± 11.4%.

Question: And the activity at 3 µM [1, 8]?
Answer: The activity at 3 µM was 97 ± 1.4%.

Question: What about the activity at 3 µM [1, 9] of the same compound?
Answer: The activity at 3 µM was 102 ± 1.4%.

Question: What about the activity at 3 µM [1, 10] of the same compound?
Answer: Its activity at 3 µM is 101 ± 0.5%.

Question: And the activity at 3 µM [1, 11]?
Answer: Its activity at 3 µM is 132 ± 27.3%.

Question: And the activity at 10 µM [1, 8]?
Answer: Its activity at 10 µM is 95 ± 1%.

Question: And the activity at 10 µM [1, 9]?
Answer: Its activity at 10 µM is 100 ± 0.9%.

Question: What about the activity at 10 µM [1, 10] of the same compound?
Answer: The activity at 10 µM was 103 ± 0.2%.

Question: And the activity at 10 µM [1, 11]?
Answer: The activity at 10 µM was 102 ± 7%.

Question: And the activity at 0.3 µM [2, 12]?
Answer: The activity at 0.3 µM was 103 ± 10.9%.

Question: And the activity at 0.3 µM [2, 13]?
Answer: Its activity at 0.3 µM is 101 ± 1.7%.

Question: What about the activity at 1 µM [2, 12] of the same compound?
Answer: Its activity at 1 µM is 116 ± 13.2%.

Question: And the activity at 1 µM [2, 13]?
Answer: Its activity at 1 µM is 104 ± 2.4%.

Question: And the activity at 3 µM [2, 12]?
Answer: Its activity at 3 µM is 100 ± 8.4%.

Question: What about the activity at 3 µM [2, 13] of the same compound?
Answer: Its activity at 3 µM is 103 ± 1.7%.

Question: And the activity at 10 µM [2, 12]?
Answer: The activity at 10 µM was 81 ± 5.7%.

Question: And the activity at 10 µM [2, 13]?
Answer: The activity at 10 µM was 101 ± 1.7%.

Question: And the activity at 0.3 µM [2, 14]?
Answer: The activity at 0.3 µM was 131 ± 17.5%.

Question: And the activity at 0.3 µM [2, 15]?
Answer: The activity at 0.3 µM was 100 ± 1%.

Question: And the activity at 1 µM [2, 14]?
Answer: Its activity at 1 µM is 115 ± 6.3%.

Question: What about the activity at 1 µM [2, 15] of the same compound?
Answer: Its activity at 1 µM is 105 ± 1.8%.

Question: And the activity at 3 µM [2, 14]?
Answer: The activity at 3 µM was 76 ± 9.1%.

Question: And the activity at 3 µM [2, 15]?
Answer: Its activity at 3 µM is 104 ± 1.5%.

Question: What about the activity at 10 µM [2, 14] of the same compound?
Answer: Its activity at 10 µM is 129 ± 28.5%.

Question: And the activity at 10 µM [2, 15]?
Answer: The activity at 10 µM was 100 ± 1.4%.

Question: What about the “Free Cmax” value [3] of the same compound?
Answer: Its value is 2320 nM.
